The text below walks through data of US11345682B2, “Polymorph of HDAC6-selective inhibitor and application thereof” (CSTONE PHARMACEUTICALS (SUZHOU) CO., LTD., priority 2018, dated 2022).

For series [1], the system named is human multiple myeloma cells MM.1S xenograft (CDX). The series can be described thus: In vivo pharmacodynamic study in MM.1S xenograft (CDX) model. The protocol:
CB-17 SCID mice, female, 6 weeks to 8 weeks old, weight of about 17 grams to 20 grams. The mice were kept in a special pathogen-free environment and in a single ventilated cage (4 mice per cage). All cages, bedding and water were disinfected before use. All animals had free access to standard certified commercial laboratory food. A total of 64 mice purchased from Beijing Vital River Co., Ltd. were used for study. 0.2 mL of 5×10^6 MM.1S cells were subcutaneously inoculated on the right back of each mouse for tumor growth. The experiment was performed when the average tumor volume reached about 100 cubic millimeters to 150 cubic millimeters.
In vivo selective experiments were performed on CB-17 SCID mice implanted subcutaneously with human multiple myeloma cells MM.1S xenograft (CDX). The polymorph A of the compound of formula (I) was formulated with a mixed solution of 5% of dimethyl sulfoxide and 95% of 10% hydroxypropyl-β-cyclodextrin into a formulation to be administered orally for 5 days and stopped for 2 days. Ixazomib was administered once on the first day and fourth day of each week, respectively. The tumor volume was measured with a two-dimensional caliper twice a week, and the volume was measured in cubic millimeters and calculated by the following formula: V=0.5 a*b^2, in which a and b were the long diameter and short diameter of the tumor, respectively. The anti-tumor efficacy was determined by dividing the average tumor increase volume of animals treated with the compound by the average tumor increase volume of untreated animals.

A short description of series [2]: Solid stability test of the polymorph A (XRPD). As to conditions: High temperature and high humidity (40° C., 75% RH; 60° C., 75% RH), 1 month. Format: physicochemical.
Series [3] is described as follows: Solid stability test of the polymorph A (XRPD). Format: physicochemical. The protocol: According to the “Guidelines for the Stability Test of Active Pharmaceutical Ingredients and Preparations” (Chinese Pharmacopoeia, 2015, Part IV, General Chapter 9001), the stability of the polymorph A of the compound of formula (I) was investigated under the conditions of high temperature (60° C., open), high humidity (room temperature/relative humidity of 92.5%, open), high temperature and high humidity (40° C., 75% RH; 60° C., 75% RH) and strong light (total illumination of 1.2×10^6 Lux·hr/near ultraviolet 200 w·hr/m^2, sealed).
15 mg of the polymorph A of the compound of formula (I) was weighed, placed on the bottom of a glass sample bottle, and spread into a thin layer. The sample placed under high temperature and high humidity was sealed with aluminum foil paper, and some small holes were pierced in the aluminum foil paper to ensure that the sample can fully contact with the ambient air; The samples placed under strong light conditions were sealed with screw caps. The samples placed under different conditions were sampled and tested (XRPD) on day 5 and day 10. The test results were compared with the initial test results on day 0.

In the case of `O=C(NO)c1ccc(CNC(=O)c2ccc(C3(c4ccc(F)cc4)CCCO3)cn2)cc1` (centres unmarked), the Tumor volume is listed as 134 mm^3 in series [1] (75 mg/kg oral, administration for 5 days and drug withdrawal for 2 days, Day 0); 165 mm^3 in series [1] (75 mg/kg oral, administration for 5 days and drug withdrawal for 2 days, Day 3); 319 mm^3 in series [1] (75 mg/kg oral, administration for 5 days and drug withdrawal for 2 days, Day 5); 466 mm^3 in series [1] (75 mg/kg oral, administration for 5 days and drug withdrawal for 2 days, Day 7); 753 mm^3 in series [1] (75 mg/kg oral, administration for 5 days and drug withdrawal for 2 days, Day 10); 1006 mm^3 in series [1] (75 mg/kg oral, administration for 5 days and drug withdrawal for 2 days, Day 12). The Tumor volume in series [1] (75 mg/kg oral, administration for 5 days and drug withdrawal for 2 days, Day 14) was 1532 mm^3. The “Efficacy in vivo (general statement)” value in series [1] (technical effects statement) is “good efficacy in vivo”. Further, the Polymorph entry is “Polymorph A” in series [2]; “Polymorph A” in series [3] (Day 0, initial (XRPD)); “Polymorph A” in series [3] (High humidity (room temperature/relative humidity of 92.5%, open), Day 5); “Polymorph A” in series [3] (High humidity (room temperature/relative humidity of 92.5%, open), Day 10); “Polymorph A” in series [3] (High temperature (60° C., open), Day 5); “Polymorph A” in series [3] (High temperature (60° C., open), Day 10). In addition, the Polymorph entry was “Polymorph A” in series [3] (High temperature and high humidity (40° C., 75% RH; 60° C., 75% RH), Day 10); “Polymorph A” in series [3] (Strong light (5000 lx, sealed), Day 5); “Polymorph A” in series [3] (Strong light (5000 lx, sealed), Day 10). In series [3] (high temperature, high humidity, high temperature and high humidity, and strong light), the “Solid stability (conclusion)” value is on record as “good stability”. The “Stability (general statement)” value in series [3] (light, heat and humidity, technical effects statement) is “stable, less affected by light, heat and humidity”.
Consider `CC(C)C[C@H](NC(=O)CNC(=O)c1cc(Cl)ccc1Cl)B(O)O` [Ixazomib, reference compound], for which the Tumor volume is 134 mm^3 in series [1] (Ixazomib 4 mg/kg, twice a week, Day 0); 157 mm^3 in series [1] (Ixazomib 4 mg/kg, twice a week, Day 3); 193 mm^3 in series [1] (Ixazomib 4 mg/kg, twice a week, Day 5); 331 mm^3 in series [1] (Ixazomib 4 mg/kg, twice a week, Day 7); 634 mm^3 in series [1] (Ixazomib 4 mg/kg, twice a week, Day 10); 835 mm^3 in series [1] (Ixazomib 4 mg/kg, twice a week, Day 12). Besides, the Tumor volume in series [1] (Ixazomib 4 mg/kg, twice a week, Day 14) was found to be 1257 mm^3.
